# Read-outs that look alike come from different tables or passages of the source.
# Key:
# [1] = Single-dose pharmacokinetics in monkeys; details: male, Cynomolgus, cynomolgus monkey
# Experimental: The pharmacokinetics of various test compounds were evaluated in male Cynomolgus monkeys in a crossover-design. Monkeys were fasted overnight prior to PO dosing and fed 4 h post dose. […] Serial blood samples (˜0.3 mL) were collected from a femoral artery at 0.17 (IV only), 0.25, 0.5, 0.75, 1, 2, 4, 6, 8, and 24 h post dose, and centrifuged at 4° C. (1500-2000×g) to obtain plasma. Samples were stored at −20° C. until analysis by LC/MS/MS.
# (§5) The pharmacokinetic parameters were obtained by non-compartmental analysis of plasma concentration vs. time data ([…] ™ software, Version 4.2, InnaPhase Corporation, Philadelphia, Pa.). The peak concentration (Cmax) and time for Cmax were recorded directly from experimental observations. The area under the curve from time zero to the last sampling time (AUC(0-T)) was calculated using a combination of linear and log trapezoidal summations. The total plasma clearance (CLTp), steady-state volume of distribution (Vss), apparent elimination half-life (T½) and mean residence time (MRT) were estimated after IV administration. […] The absolute oral bioavailability (F) was estimated as the ratio of dose-normalized AUC values following oral and IV doses.
# [2] = tested on: infiltration of mononuclear cells to the skin tissue injected with human MCP-1; assay: Intradermal (ID) MCP-1 challenge model in Cynomolgus monkey; format: in vivo; set-up: PMN score / Eos score / Total cell score: scale not given here; details: for inhibition of mononuclear cell infiltration: second study, naive monkeys
# Experimental: (§1) Intradermal injection of MCP-1 results in the infiltration of mononuclear cells to the injection site. This model was initially developed to assess the inhibitory effect of CCR2 antagonists on the infiltration of mononuclear cells to the skin tissue injected with human MCP-1.
# (§2) Immediately after dosing on Day 3, all animals received at least 2 intradermal injections of 10 μg (50 μL/injection ) of human MCP-1 (R & D Systems) and at least 2 intradermal injections of its DPBS control (50 μl/injection) at separate sites on the dorsal thorax. Dermal biopsies of all sites were obtained at approximately 18 hours following MCP-1 (or DPBS) challenge. Biopsies were processed for semi-quantitative histological evaluation. Representative sections of skin samples were examined by light microscopy, microscopic lesions and cellular infiltration were noted, and their incidences were tabulated.
# (§3) For both studies, in addition to biopsy analysis, blood was collected and evaluated for complete blood counts and cell differentials. Also evaluated were plasma samples for compound concentrations, and serum samples for systemic inflammatory mediator levels.
# [3] = as above; format: in vivo; set-up: PMN score / Eos score / Total cell score: scale not given here; details: both sexes, cynomolgus monkey, plasma, read-out: Free plasma conc
# Experimental: as §1, §2, §3
# [4] = tested on: monkey PBMC's; assay: In vitro chemotaxis assay with monkey PBMC's; format: cell-based, Cynomolgus monkey; details: Primates, highly variable
# Description: (§4) The first employs monkey PBMC's while the second uses L1.2 cells stably transfected with Cyno CCR2.
# [5] = biological target: Cyno CCR2 (Macaca fascicularis); assay: In vitro chemotaxis assay with L1.2 cells stably transfected with Cyno CCR2; format: cell-based, Cynomolgus monkey
# Sequence of Cyno CCR2 (Macaca fascicularis) (Z9BGH1DMK8 1-374): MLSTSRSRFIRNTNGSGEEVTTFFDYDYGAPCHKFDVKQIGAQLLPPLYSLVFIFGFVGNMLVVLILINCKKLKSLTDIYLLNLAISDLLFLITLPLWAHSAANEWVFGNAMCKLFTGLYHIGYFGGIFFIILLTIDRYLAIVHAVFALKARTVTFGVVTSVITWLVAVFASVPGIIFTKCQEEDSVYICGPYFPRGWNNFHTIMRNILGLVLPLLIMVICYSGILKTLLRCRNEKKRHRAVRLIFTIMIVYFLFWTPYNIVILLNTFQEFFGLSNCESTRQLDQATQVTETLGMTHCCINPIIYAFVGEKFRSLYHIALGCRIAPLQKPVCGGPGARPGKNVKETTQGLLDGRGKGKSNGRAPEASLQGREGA
# Description: as §4
# [6] = Parallel Artificial Membrane Permeability Assay (PAMPA); details: mean ± SD (n in parentheses)
# Description: The Parallel Artificial Membrane Permeability Assay (PAMPA) consists of a specially formulated lecithin-based lipid combination referred to as the gastrointestinal tract (GIT) lipid. The GIT lipid is used to form a membrane in a sandwich plate assembly similar to that used in the Caco-2 assays. […] The rate of passage of compounds through the PAMPA membrane is used to determine a permeability coefficient (Pc), which can be related to the in vivo passive permeability of the compound.
# The permeability coefficient (Pc) of a particular compound is examined in a pH-dependent setting with apical and basolateral pH of 7.4. All experiments are conducted in triplicate determinations.
# The PAMPA assay plate (donor side and acceptor side) was combined and allowed to incubate at room temperature for 4 hours. […] The donor, acceptor, reference, and blank plates were read in the SpectraMax UV plate reader. Data was captured by the pION software, which analyzes the spectra and generates Pc values.
# [7] = biological target: T1, hERG (Homo sapiens, UniProt Q12809); assay: hERG flux (Tl+ flux, FLIPR) in HEK293 cells; format: cell-based; set-up: expressed in transfected cells; host or cells: HEK293
# T1 sequence (Q12809 whole entry): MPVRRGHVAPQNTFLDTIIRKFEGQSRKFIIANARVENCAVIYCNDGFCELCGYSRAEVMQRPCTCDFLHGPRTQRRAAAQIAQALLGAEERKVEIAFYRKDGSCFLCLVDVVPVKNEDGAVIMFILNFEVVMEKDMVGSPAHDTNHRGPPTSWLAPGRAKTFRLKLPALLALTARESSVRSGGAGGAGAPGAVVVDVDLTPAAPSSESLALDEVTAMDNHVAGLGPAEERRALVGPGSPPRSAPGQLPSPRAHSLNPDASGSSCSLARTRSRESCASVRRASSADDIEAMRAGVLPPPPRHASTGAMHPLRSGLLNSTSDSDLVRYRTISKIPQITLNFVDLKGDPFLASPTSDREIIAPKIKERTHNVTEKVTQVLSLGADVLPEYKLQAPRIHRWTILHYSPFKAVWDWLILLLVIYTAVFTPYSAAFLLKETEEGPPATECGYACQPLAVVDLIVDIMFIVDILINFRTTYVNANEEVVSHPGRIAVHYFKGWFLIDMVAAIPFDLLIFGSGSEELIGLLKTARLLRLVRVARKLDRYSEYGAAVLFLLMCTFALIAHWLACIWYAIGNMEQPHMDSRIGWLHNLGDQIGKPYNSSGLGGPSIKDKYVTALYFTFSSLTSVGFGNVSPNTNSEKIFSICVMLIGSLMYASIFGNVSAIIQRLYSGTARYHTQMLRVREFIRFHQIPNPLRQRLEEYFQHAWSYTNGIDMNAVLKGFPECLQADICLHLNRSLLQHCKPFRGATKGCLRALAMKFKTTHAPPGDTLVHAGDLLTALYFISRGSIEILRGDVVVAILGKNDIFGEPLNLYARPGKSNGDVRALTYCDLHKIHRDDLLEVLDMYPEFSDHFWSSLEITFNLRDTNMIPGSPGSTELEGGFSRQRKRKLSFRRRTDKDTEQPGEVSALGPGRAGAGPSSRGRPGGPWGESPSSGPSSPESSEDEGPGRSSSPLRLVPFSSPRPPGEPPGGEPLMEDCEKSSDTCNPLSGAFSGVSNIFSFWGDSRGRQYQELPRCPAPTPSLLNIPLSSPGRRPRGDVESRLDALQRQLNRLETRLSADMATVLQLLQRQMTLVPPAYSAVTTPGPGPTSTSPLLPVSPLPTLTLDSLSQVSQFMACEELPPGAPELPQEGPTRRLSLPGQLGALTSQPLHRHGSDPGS
# Experimental: HEK293 cells stably-expressing hERG channels were grown (37° C., 5% CO2) in Dulbecco's Modified Eagle's Media supplemented with 10% Sigma fetal bovine serum, non-essential amino acids, 2 mM L-glutamine and 500 μg/ml G418, at incubator.
# A 2 mM stock of BTC-AM dye (Molecular Probes, Eugene, Oreg.) was prepared in 100% DMSO and then added 1:1 to 10% (w/v) pluronic acid in DMSO on the day of assay. The dye was then diluted in hERG external EP buffer (140 mM NaCl, 4.0 mM KCl, 1.8 mM CaCl2, 1.0 mM MgCl2, 10 mM HEPES, pH 7.3 and 10 mM glucose; all buffer components obtained from Sigma Chemical). This BTC dye mixture (30 μl) was added to the cells and produced a final loading concentration of 2.5 μM. Cells are incubated at 21° C. for 45 minutes.
# Test compounds were diluted to 10 mM DMSO in 60 μl. […] Assay-ready plates were generated by stamping 2.5 μl from the DMSO serially diluted plate, which was prepared on the Velocity 11 BioCel. Aqueous plates were created by adding 48 μl of EP buffer and then were diluted 30-45 minutes before the assay was read on the FLIPR. […] Assay-ready aqueous plates were prepared and diluted on a Cybio liquid handler.
# Cells loaded with dye were read on the FLIPR384 (Molecular Devices, Sunnyvale, Calif.), which excites the dye using the 488 nm line of an argon laser. […]
# The dynamic range of the assay was determined from blanks and totals wells. […]
# [8] = tested on: EAE, a model of multiple sclerosis; format: in vivo
# [9] = biological target: human cardiac sodium channel SCN5A (Homo sapiens, UniProt Q14524); assay: Sodium channel patch clamp, HEK-293 cells; format: cell-based; details: read-out: Na+ channel patch clamp (% Inhib.)
# Sequence of human cardiac sodium channel SCN5A (Q14524 whole entry): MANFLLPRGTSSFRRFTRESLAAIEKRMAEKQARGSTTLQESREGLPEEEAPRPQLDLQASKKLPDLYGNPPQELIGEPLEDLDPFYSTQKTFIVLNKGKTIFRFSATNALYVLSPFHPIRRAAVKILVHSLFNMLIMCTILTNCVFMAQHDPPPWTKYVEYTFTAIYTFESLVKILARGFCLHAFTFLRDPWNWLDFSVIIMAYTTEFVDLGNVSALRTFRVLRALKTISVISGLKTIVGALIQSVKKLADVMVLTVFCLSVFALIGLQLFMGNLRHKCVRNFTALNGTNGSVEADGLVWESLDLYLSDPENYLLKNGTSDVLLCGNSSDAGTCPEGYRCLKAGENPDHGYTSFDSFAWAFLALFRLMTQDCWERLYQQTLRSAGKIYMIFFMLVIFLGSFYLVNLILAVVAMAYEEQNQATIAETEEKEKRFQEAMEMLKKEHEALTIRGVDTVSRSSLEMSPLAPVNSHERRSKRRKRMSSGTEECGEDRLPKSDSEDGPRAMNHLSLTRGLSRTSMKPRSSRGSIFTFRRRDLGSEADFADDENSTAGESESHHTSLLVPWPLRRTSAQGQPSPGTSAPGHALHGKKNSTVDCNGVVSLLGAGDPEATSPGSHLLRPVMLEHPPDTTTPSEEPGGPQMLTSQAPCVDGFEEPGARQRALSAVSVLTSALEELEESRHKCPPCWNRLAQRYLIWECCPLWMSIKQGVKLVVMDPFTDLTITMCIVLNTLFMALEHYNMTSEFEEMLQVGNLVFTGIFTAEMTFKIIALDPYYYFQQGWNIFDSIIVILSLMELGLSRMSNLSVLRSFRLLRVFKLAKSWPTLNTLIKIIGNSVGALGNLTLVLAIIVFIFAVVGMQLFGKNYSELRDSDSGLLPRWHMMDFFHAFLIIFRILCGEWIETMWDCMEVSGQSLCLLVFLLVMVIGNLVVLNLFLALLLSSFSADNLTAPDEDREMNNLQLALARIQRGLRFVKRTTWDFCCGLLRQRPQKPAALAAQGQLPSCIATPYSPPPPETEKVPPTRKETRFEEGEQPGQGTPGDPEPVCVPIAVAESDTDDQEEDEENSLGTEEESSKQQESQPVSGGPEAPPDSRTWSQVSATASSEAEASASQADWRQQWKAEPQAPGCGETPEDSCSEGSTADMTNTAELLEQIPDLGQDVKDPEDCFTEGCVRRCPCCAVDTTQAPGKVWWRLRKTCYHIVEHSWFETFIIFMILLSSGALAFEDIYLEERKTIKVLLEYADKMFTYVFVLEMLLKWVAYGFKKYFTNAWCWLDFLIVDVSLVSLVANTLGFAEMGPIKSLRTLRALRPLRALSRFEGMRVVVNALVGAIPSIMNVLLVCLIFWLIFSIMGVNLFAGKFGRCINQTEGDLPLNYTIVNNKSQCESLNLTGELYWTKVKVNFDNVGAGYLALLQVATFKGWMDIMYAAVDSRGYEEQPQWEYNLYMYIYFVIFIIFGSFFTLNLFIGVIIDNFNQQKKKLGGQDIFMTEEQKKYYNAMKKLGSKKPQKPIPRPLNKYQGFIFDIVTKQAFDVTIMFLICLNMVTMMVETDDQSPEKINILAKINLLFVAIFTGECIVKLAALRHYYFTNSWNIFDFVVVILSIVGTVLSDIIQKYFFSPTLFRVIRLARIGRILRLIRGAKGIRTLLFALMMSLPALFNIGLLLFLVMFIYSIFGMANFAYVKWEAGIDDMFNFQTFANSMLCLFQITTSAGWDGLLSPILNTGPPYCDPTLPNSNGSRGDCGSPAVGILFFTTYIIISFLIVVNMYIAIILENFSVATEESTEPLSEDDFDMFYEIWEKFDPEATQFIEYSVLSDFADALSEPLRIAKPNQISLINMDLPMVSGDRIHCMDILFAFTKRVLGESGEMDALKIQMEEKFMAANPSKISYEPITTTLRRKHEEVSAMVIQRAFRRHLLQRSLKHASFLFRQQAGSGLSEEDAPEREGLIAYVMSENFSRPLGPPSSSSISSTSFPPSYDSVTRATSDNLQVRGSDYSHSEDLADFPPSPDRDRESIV
# Experimental: The compound was tested at a protein-free aqueous buffer. For determining steady state inhibition, sodium currents were elicited every 5 seconds using the following voltage protocol: cells were held at a potential of −90 mV and stepped to −20 mV for 60 ms. Effects were calculated by measuring inhibition of peak current during the test pulse to −20 mV. Rate-dependence of inhibition was assessed by stimulation at frequencies of 1 Hz and 4 Hz.
# [10] = Single-dose pharmacokinetics in rats; details: rat
# Experimental: Male Sprague-Dawley rats (250-300 g) were used for the pharmacokinetic studies. Rats were fasted overnight prior to PO dosing and fed 4 h post dose. Blood samples (˜0.3 mL) were collected from the jugular vein into K2EDTA-containing tubes and then centrifuged at 4° C. (1500-2000×g) to obtain plasma. […] Serial blood samples were obtained at 0.17 (for IV only), 0.25, 0.5, 0.75, 1, 2, 4, 6, 8, and 24 h post dose. Plasma samples, obtained by centrifugation at 4° C. (1500-2000×g), were stored at −20° C. until analysis by LC/MS/MS.
# as §5
# [11] = biological target: T2, CCR2 (Homo sapiens, UniProt P41597); assay: In vivo receptor occupancy in blood of hCCR2 KI mice, 48-hour TG peritonitis model (Gaddum equation); details: for Concentration of Mouse MCP-1 in plasma / Concentration of free Example 1 in plasma: 48-hour TG peritonitis; for % free CCR2 / % mouse MCP-1 bound CCR2 / % of Example 1-bound CCR2: Gaddum equation
# T2 sequence (P41597 whole entry): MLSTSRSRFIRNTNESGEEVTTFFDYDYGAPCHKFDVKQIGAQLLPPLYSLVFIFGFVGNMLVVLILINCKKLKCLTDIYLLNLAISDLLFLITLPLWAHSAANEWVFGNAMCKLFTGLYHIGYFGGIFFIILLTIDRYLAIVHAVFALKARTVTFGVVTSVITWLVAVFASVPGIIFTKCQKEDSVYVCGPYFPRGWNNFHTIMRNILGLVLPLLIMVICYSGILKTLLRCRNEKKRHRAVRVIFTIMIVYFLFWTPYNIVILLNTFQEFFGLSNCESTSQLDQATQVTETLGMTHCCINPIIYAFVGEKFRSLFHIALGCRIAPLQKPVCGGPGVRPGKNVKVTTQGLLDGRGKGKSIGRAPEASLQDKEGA
# [12] = biological target: T1, hERG; assay: hERG patch clamp, HEK-293 cells; details: pH 7.4
# [13] = tested on: monocyte/macrophage infiltration into peritoneal cavity; assay: 48-hour thioglycollate (TG)-induced peritonitis model in hCCR2 KI mouse; format: in vivo, hCCR2 KI mice; details: for % inhibition of monocyte/macrophage infiltration: FACS-based analysis of total monocyte/macrophages, 48 h; for EC50: Mus musculus, two separate studies, estimated, read-out: average EC50 for inhibition of monocyte/macrophage infiltration; for inhibition of monocyte/macrophage infiltration: flow cytometry (F4/80, Ly6C)
# Experimental: The hCCR2 KI mice (C57BL/6-SVJ129) were injected intraperitoneally with 1 ml of thioglycollate (TG) (Hardy Diagnostics). For each study, eight male mice per group were used. […] The vehicle used was 0.01 N HCl in water. Forty-eight hours post TG injection, peritoneal lavages were performed by injecting 5 ml PBS/10 mM EDTA/10% BSA into the peritoneal cavity.
# Cytospins were performed to determine differential leukocyte counts. The cells were stained for 3 minutes with Wright-Giemsa Stain (Sigma-Aldrich) and then rinsed with deionized water for 5 minutes. Differential counts were calculated based on a total of 200 cells counted per sample.
# [14] = Moisture-sorption isotherm; format: physicochemical; details: ca. 25% to ca. 75% RH at 25° C.
# Experimental: A sample of the oily, gel-like (amorphous) free base of N-((1R,2S,5R)-5-(isopropyl(methyl)amino)-2-((S)-2-oxo-3-(6-(trifluoromethyl)quinazolin-4-ylamino)pyrrolidin-1-yl)cyclohexyl)acetamide (approx 0.5 g), extracted from a sample of the BSA salt, was suspended in heptane (approx 5 mL). The flask was scratched with a metal spatula, and the suspension was stirred vigorously by a magnetic stir bar at 25° C. A white slurry of crystalline particles was obtained after 24 hours of stirring. The slurry was filtered and the wet cake dried in vacuo (40° C.) to provide the pure N-2 form (confirmed by PXRD) of the free base. Form N-2 was characterized by an XRD pattern which matches the simulated pattern generated from the single crystal structure data. Form N-2 is the neat (no solvate molecules or no molecules of water or solvent) form of N-((1R,2S,5R)-5-(isopropyl(methyl)amino)-2-((S)-2-oxo-3-(6-(trifluoromethyl)quinazolin-4-ylamino)pyrrolidin-1-yl)cyclohexyl)acetamide, free base. Form N-2, was characterized by a DSC thermogram having a melt endotherm onset typically at ca. 158° C. to ca. 162° C. Form N-2 was characterized by a TGA thermal curve having a negligible weight loss at up to ca. 145° C. which agreed with the single crystal structure data. The weight loss corresponded to adventitious solvent.
# [15] = biological target: T2, CCR2; assay: Cold competition ligand binding to hCCR2 using 125I-human MCP-1; details: 125I-human MCP-1, n=8
compound,measurement,setting,value
"CC(=O)N[C@@H]1C[C@H](N(C)C(C)C)CC[C@@H]1N1CC[C@H](Nc2ncnc3ccc(C(F)(F)F)cc23)C1=O [Example 1, N-((1R,2S,5R)-5-(isopropyl(methyl)amino)-2-((S)-2-oxo-3-(6-(trifluoromethyl)quinazolin-4-ylamino)pyrrolidin-1-yl)cyclohexyl)acetamide]",bioavailability,"[1]; in vivo, po, 1.3 mg/kg",47%
same,clearance,"[1]; plasma, iv, 1 mg/kg",23 mL/min/kg
same,AUC,"[1]; plasma, po, 1.3 mg/kg",0.836 µM·h
same,Eos score,"[2]; Study 1, 6.5 mg/kg",1.3 ± 0.8
same,MNC score (inh %),"[2]; Study 1, 6.5 mg/kg",(19%)
same,PMN score,"[2]; Study 1, 6.5 mg/kg",0.8 ± 0.3
same,Total cell score,"[2]; Study 1, 6.5 mg/kg",4.3 ± 1.6
same,MNC score,"[2]; Study 1, 6.5 mg/kg, scale of 0 to 4",2.2 ± 0.6
same,Eos score,"[2]; Study 1, 13 mg/kg",1.2 ± 0.6
same,MNC score (inh %),"[2]; Study 1, 13 mg/kg",(19%)
same,PMN score,"[2]; Study 1, 13 mg/kg",0.7 ± 0.3
same,Total cell score,"[2]; Study 1, 13 mg/kg",4.0 ± 0.5
same,MNC score,"[2]; Study 1, 13 mg/kg, scale of 0 to 4",2.2 ± 0.3
same,Eos score,"[2]; Study 1, 26 mg/kg",0.5 ± 0^
same,MNC score (inh %),"[2]; Study 1, 26 mg/kg",(56%)
same,PMN score,"[2]; Study 1, 26 mg/kg",0.2 ± 0.3
same,Total cell score,"[2]; Study 1, 26 mg/kg",1.8 ± 0.8
same,MNC score,"[2]; Study 1, 26 mg/kg, scale of 0 to 4",1.2 ± 0.6
same,Eos score,"[2]; Study 2, 10 mg/kg",0.3 ± 0.1
same,MNC score,"[2]; Study 2, 10 mg/kg",0.2 ± 0.2
same,MNC score (inh %),"[2]; Study 2, 10 mg/kg",(87%)
same,PMN score,"[2]; Study 2, 10 mg/kg",0
same,Total cell score,"[2]; Study 2, 10 mg/kg",0.5 ± 0.2
same,Eos score,"[2]; Study 2, 30 mg/kg",0.6 ± 0.7
same,MNC score,"[2]; Study 2, 30 mg/kg",0.1 ± 0.3
same,MNC score (inh %),"[2]; Study 2, 30 mg/kg",(91%)
same,PMN score,"[2]; Study 2, 30 mg/kg",0.1 ± 0.3
same,Total cell score,"[2]; Study 2, 30 mg/kg",0.8 ± 0.8
same,infiltration of other cells types such as eosinophils and neutrophils,[2]; first study,inhibited the infiltration
same,inhibition of MCP-1 induced infiltration of mononuclear cells to the skin,"[2]; first study, 26 mg/kg oral once daily for three days, biopsy 18 hours after MCP-1",56%
same,inhibition of MCP-1 induced infiltration of mononuclear cells to the skin,"[2]; first study, 13 and 6.5 mg/kg",lower levels of inhibition
same,inhibition of mononuclear cell infiltration,[2]; 10 mg/kg,87%
same,inhibition of mononuclear cell infiltration,[2]; 30 mg/kg,91%
same,concentration at 18 h,"[3]; 6.5 mg/kg once daily for 3 days, Study 1, 6.5 mg/kg oral once daily 3 days, 18 hours",53 nM
same,concentration at 18 h,"[3]; 13 mg/kg once daily for 3 days, Study 1, 13 mg/kg oral once daily 3 days, 18 hours",101 nM
same,concentration at 18 h,"[3]; 26 mg/kg once daily for 3 days, Study 1, 26 mg/kg oral once daily 3 days, 18 hours",238 nM
same,concentration at 18 h,"[3]; Study 2 (naive monkeys), 10 mg/kg oral once daily 3 days",34 nM
same,concentration at 18 h,"[3]; Study 2 (naive monkeys), 30 mg/kg oral once daily 3 days",83 nM
same,IC50,[4],5.5 ± 10 nM
same,IC50,[5],11.4 ± 8 nM
same,PAMPA permeability,[6],443 ± 114 (8) nm/sec
same,IC50,[7],> 80000 nM
same,clinical score,"[8]; 55 mg/kg BID oral from day 1, two of the three studies, p<0.05",significantly reduced the clinical score
same,"total inflammatory cellular infiltrate, histological evaluation of the spinal cord","[8]; Day 22, versus vehicle",did not demonstrate a significant difference
same,inhibition at 10000 nM,"[9]; HEK-293 cells expressing human cardiac sodium channel SCN5A, 10,000 nM",17%
same,inhibition at 30000 nM,"[9]; HEK-293 cells expressing human cardiac sodium channel SCN5A, 30,000 nM",19%
same,AUC,"[10]; male, Sprague-Dawley, plasma, po, 10 mg/kg",3.79 µM·h
same,Cl,"[10]; IV, dose IV/PO mg/kg: 2k 2.5/25, 8a 6/72, 9c 4/43, Example 1 2/10",43 mL/min/kg
same,F %,"[10]; dose IV/PO mg/kg: 2k 2.5/25, 8a 6/72, 9c 4/43, Example 1 2/10",51%
same,Concentration of Mouse MCP-1 in plasma,[11]; 1 mg/kg oral BID,0.027 nM
same,Concentration of free Example 1 in plasma,[11]; 1 mg/kg oral BID,1 nM
same,% free CCR2,[11]; 1 mg/kg,53.7%
same,% mouse MCP-1 bound CCR2,[11]; 1 mg/kg,1.6%
same,% of Example 1-bound CCR2,[11]; 1 mg/kg,44.7%
same,Concentration of Mouse MCP-1 in plasma,[11]; 5 mg/kg oral BID,0.043 nM
same,Concentration of free Example 1 in plasma,[11]; 5 mg/kg oral BID,4 nM
same,% free CCR2,[11]; 5 mg/kg,22.8%
same,% mouse MCP-1 bound CCR2,[11]; 5 mg/kg,1.1%
same,% of Example 1-bound CCR2,[11]; 5 mg/kg,76.1%
same,Concentration of Mouse MCP-1 in plasma,[11]; 25 mg/kg oral BID,0.041 nM
same,Concentration of free Example 1 in plasma,[11]; 25 mg/kg oral BID,24 nM
same,% free CCR2,[11]; 25 mg/kg,4.8%
same,% mouse MCP-1 bound CCR2,[11]; 25 mg/kg,0.2%
same,% of Example 1-bound CCR2,[11]; 25 mg/kg,95.0%
same,inhibition at 10000 nM,[12],33%
same,inhibition at 30000 nM,[12],61%
same,% inhibition of monocyte/macrophage infiltration,[13]; 1 mg/kg,38%
same,% inhibition of monocyte/macrophage infiltration,[13]; 5 mg/kg,71%
same,% inhibition of monocyte/macrophage infiltration,[13]; 25 mg/kg,86%
same,number of total peritoneal leukocytes obtained by cell counter,"[13]; 1, 5, or 25 mg/kg BID oral, 48 hours post TG",dose-dependent reduction
same,EC50,[13]; differential leukocyte counts,3 ± 0.9 nM
same,EC50,[13]; flow cytometry,2.2 ± 0.5 nM
same,inhibition of monocyte/macrophage influx,"[13]; differential leukocyte counts, 1 mg/kg BID",20%
same,inhibition of monocyte/macrophage influx,"[13]; differential leukocyte counts, 5 mg/kg BID",62%
same,inhibition of monocyte/macrophage influx,"[13]; differential leukocyte counts, 25 mg/kg BID",69%
same,inhibition of monocyte/macrophage infiltration,[13]; 1 mg/kg BID,38%
same,inhibition of monocyte/macrophage infiltration,[13]; 5 mg/kg BID,71%
same,inhibition of monocyte/macrophage infiltration,[13]; 25 mg/kg BID,86%
"CC(=O)N[C@@H]1C[C@H](N(C)C(C)C)CC[C@@H]1N1CC[C@H](Nc2ncnc3ccc(C(F)(F)F)cc23)C1=O [Form N-2, N-((1R,2S,5R)-5-(isopropyl(methyl)amino)-2-((S)-2-oxo-3-(6-(trifluoromethyl)quinazolin-4-ylamino)pyrrolidin-1-yl)cyclohexyl)acetamide]",moisture-sorption isotherm weight gain,[14],0.15%
mouse MCP-1: mouse CCR2 ligand MCP-1 (chemokine),Kd,[15],0.91 nM

# Source: patent publication US7671062B2, “Modulators of chemokine receptor activity, crystalline forms and process” (Bristol-Myers Squibb Company, priority 2006, dated 2010)
